Experimental data as given in patent US20150087045A1, “CRYSTAL STRUCTURE OF HCV […] AND METHODS OF USE” (GILEAD P[…], priority 2012, published 2015).
Where “and” joins values, the source holds several entries; their conditions need not be identical. Identical values can stand only once.

Experiments:
[1] = Thermofluor analysis: melting temperature of polymerase constructs; format: physicochemical; details: polymerase itself
Experimental: Thermofluor analysis of HCV polymerases 1bWT, 1bΔ8, 2aWT, and 2aΔ8 was performed as previously described (36, 37) in the absence and presence of symmetrical primer-template pairs or fused hairpin primer-template RNA as described in Example 2.

[2] = system: genotype 1b (−) IRES RNA template; test: De novo RNA synthesis activity of HCV NS5B polymerase constructs; format: biochemical, hepatitis C virus; details: 2a Δ8 with Gly-Gly linker compared to wild-type 2a
Experimental: HCV activity assays were performed in a 200 μL mixture containing 1 μM of the four natural ribonucleotides, [α-^32P]UTP, 20 ng/μL of genotype 1b (−) IRES RNA template, 1 unit/μL of SUPERase.In (Ambion, Austin, Tex.), 40 ng/μL of NS5B, 5 mM MgCl2, and 2 mM DTT in 50 mM HEPES buffer (pH 7.5). The reaction was incubated at 27° C. and 20 μL aliquots were taken at the desired time points and quenched by mixing in 80 μL of stop solution (12.5 mM EDTA, 2.25 M NaCl, and 225 mM sodium citrate).

[3] = system: HCV polymerase 1b Δ8 S282T; test: Inhibition assay (chain termination) with construct 1b Δ8 S282T; format: biochemical, hepatitis C virus genotype 1b BK isolate; details: upon introduction of S282T into 1b Δ8
[4] = molecular target: T1, HCV polymerase 1b Δ8 S282T (Hepatitis C virus genotype 1b, UniProt P26663, DEL2863-2870/E2505Q/E2506Q/K2533R/L2466Q/R2963Q/S2701T/S2872G/Y2871G); test: as above; format: biochemical, hepatitis C virus genotype 1b BK isolate
T1 construct: 1bΔ8 S282T; made in house; host or cells: E. coli Rosetta DE3

[5] = molecular target: T2, HCV NS5B polymerase 1b WT (Hepatitis C virus genotype 1b, UniProt P26663, E2505Q/E2506Q/K2533R/L2466Q/R2963Q); test: Inhibition assay (chain termination) with construct 1b WT; format: biochemical, hepatitis C virus genotype 1b BK isolate; details: one value or range given for both 1b WT and 1b Δ8
T2 construct: 1b WT; made in house; host or cells: E. coli Rosetta DE3
Experimental: For constructs 1bWT and 1bΔ8, inhibition assays were performed in a 120 μL mixture containing 5 μM of the four natural ribonucleotides, [α-^32P]UTP, 20 ng/μL of genotype 1b (−) IRES RNA template, 1 unit/μL of SUPERase.In (Ambion, Austin, Tex.), 40 ng/μL of NS5B, 5 mM MgCl2, and 2 mM DTT in 50 mM HEPES buffer (pH 7.5). The reaction was incubated at 27° C. and a 20 μL aliquot was taken at 0, 30, 60, 90, and 120 minute time points and quenched by mixing with 80 μL of stop solution (12.5 mM EDTA, 2.25 M NaCl, and 225 mM sodium citrate). The radioactive RNA products were separated from unreacted substrates using a Hybond N+ membrane (GE Healthcare) as described previously (FIG. 2). The products were visualized and quantified using a phosphorimager. The reaction rates and IC 50 values were calculated using GraphFit.

[6] = system: HCV polymerase 1b S282T; test: Inhibition assay (chain termination) with construct 1b S282T; format: biochemical, hepatitis C virus genotype 1b BK isolate; details: upon introduction of S282T into 1b WT
[7] = molecular target: T3, HCV polymerase 1b S282T (Hepatitis C virus genotype 1b, UniProt P26663, E2505Q/E2506Q/K2533R/L2466Q/R2963Q/S2701T); test: as above; format: biochemical, hepatitis C virus genotype 1b BK isolate
T3 construct: 1b S282T; made in house; host or cells: E. coli Rosetta DE3

[8] = molecular target: T4, HCV NS5B polymerase 1b Δ8 (Hepatitis C virus genotype 1b, UniProt P26663, DEL2863-2870/E2505Q/E2506Q/K2533R/L2466Q/R2963Q/S2872G/Y2871G); test: Inhibition assay (chain termination) with construct 1b Δ8; format: biochemical, hepatitis C virus genotype 1b BK isolate; details: for IC50: one value or range given for both 1b WT and 1b Δ8
T4 construct: 1bΔ8; made in house; host or cells: E. coli Rosetta DE3

[9] = molecular target: T5, HCV NS5B polymerase 2a Δ8 (Hepatitis C virus genotype 2a, UniProt Q99IB8, DEL2886-2893/E2528Q/E2529Q/S2895G/Y2894G); test: Inhibition assay (chain termination) with construct 2a Δ8; format: biochemical, hepatitis C virus genotype 2a JFH1 isolate; details: 15 minutes incubation, 27° C.
T5 construct: 2aΔ8; made in house; host or cells: E. coli Rosetta DE3
Experimental: (§1) For constructs 2aWT and 2aΔ8, inhibition assays were performed in a 20 μL mixture containing varying concentrations of PSI-352666 or 2′-C-MeGTP, 5 μM of the four natural ribonucleotides, [α-^32P]UTP, 20 ng/μL of genotype 1b (−) IRES RNA template, 1 unit/μL of SUPERase.In (Ambion, Austin, Tex.), 40 ng/μL of NS5B, 5 mM MgCl2, and 2 mM DTT in 50 mM HEPES buffer (pH 7.5).
(§2) The reaction was incubated at 27° C. and quenched by adding 80 μL of stop solution after 60 minutes incubation with 2aWT or 15 minutes incubation with 2aΔ8. The radioactive RNA products were separated from unreacted substrates using a Hybond N+ membrane (GE Healthcare) as described previously^28. The products were visualized and quantified using a phosphorimager. The reaction rates and the IC50 values were calculated using GraphFit (Erithacus Software, Horley, Surrey, UK).

[10] = molecular target: T6, HCV NS5B polymerase 2a WT (Hepatitis C virus genotype 2a, UniProt Q99IB8, E2528Q/E2529Q); test: Inhibition assay (chain termination) with construct 2a WT; format: biochemical, hepatitis C virus genotype 2a JFH1 isolate; details: 60 minutes incubation, 27° C.
T6 construct: 2a WT; made in house; host or cells: E. coli Rosetta DE3
Experimental: as §1, §2

| Compound | melting temperature (Tm) [1] | de novo RNA synthesis activity compared to 2a WT [2] | increase in IC50 [3] | IC50 [4] | IC50 [5] | increase in IC50 [6] | IC50 [7] | IC50 [8] | IC50 [9] | IC50 [10] | chain termination: elongation of the terminated product (*GGCX) ([8]; in the presence of the next correct incoming nucleotide (ATP), 0-60 min) |
| --- | --- | --- | --- | --- | --- | --- | --- | --- | --- | --- | --- |
| 2a WT: HCV polymerase genotype 2a JFH-1 construct, SEQ ID NO:3, C-terminal 21 amino acids replaced by hexahistidine tag, E86Q and E87Q | ~41 °C |  |  |  |  |  |  |  |  |  |  |
| 2a Δ8: 2a WT with the β-hairpin replaced by a Gly-Gly linker, SEQ ID NO:8 | ~35 °C | > 100 fold |  |  |  |  |  |  |  |  |  |
| C[C@@]1(O)[C@H](O)[C@@H](COP(=O)(O)OP(=O)(O)OP(=O)(O)O)O[C@H]1n1cnc2c(=O)[nH]c(N)nc21 [2′-C-MeGTP] |  |  | > 10 fold | > 100 µM | 7 to 13 µM | > 10 fold | > 100 µM | 7 to 13 µM |  |  |  |
| C[C@@]1(F)[C@H](O)[C@@H](COP(=O)(O)OP(=O)(O)OP(=O)(O)O)O[C@H]1n1cnc2c(=O)[nH]c(N)nc21 [PSI-352666] |  |  | ~2.5 fold | 9 to 14 µM | 4 µM | ~2.5 fold | 9 to 14 µM | 4 µM | 6 µM and 6.41 µM | 6.05 ± 0.82 µM | not further elongated |
